In paper PMC3433420 (PLoS ONE, 2012):
Residues, ends and D or L forms follow the SMILES beside them.

Experiments:
Experiment in all cases: In-house protein microarrays (with or without 5 mM DTT), protein named per line
Type in all cases: binding
SH2 and PTB domains [1] = target: T1, SH2 and PTB domains (Homo sapiens, UniProt P43405)
T1 construct: thioredoxin; made in house; host or cells: BL21(DE3)pLysS E. coli
In short: (§1)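 KD values come from rhodamine fluorescence of duplicate spots after subtraction of a thioredoxin control. Domains were printed at ~40 µM on aldehyde slides, blocked 1 h at room temperature in pH 7.8 HEPES/KCl buffer with 5 mM DTT and 1% BSA, then peptide-probed.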

SH2 and PTB domains [2] = target: T2, SH2 and PTB domains (Homo sapiens, UniProt P16885); conditions: protein PLCG2-NC
T2 construct: thioredoxin; made in house; host or cells: BL21(DE3)pLysS E. coli
T2 sequence (P16885 1-1265): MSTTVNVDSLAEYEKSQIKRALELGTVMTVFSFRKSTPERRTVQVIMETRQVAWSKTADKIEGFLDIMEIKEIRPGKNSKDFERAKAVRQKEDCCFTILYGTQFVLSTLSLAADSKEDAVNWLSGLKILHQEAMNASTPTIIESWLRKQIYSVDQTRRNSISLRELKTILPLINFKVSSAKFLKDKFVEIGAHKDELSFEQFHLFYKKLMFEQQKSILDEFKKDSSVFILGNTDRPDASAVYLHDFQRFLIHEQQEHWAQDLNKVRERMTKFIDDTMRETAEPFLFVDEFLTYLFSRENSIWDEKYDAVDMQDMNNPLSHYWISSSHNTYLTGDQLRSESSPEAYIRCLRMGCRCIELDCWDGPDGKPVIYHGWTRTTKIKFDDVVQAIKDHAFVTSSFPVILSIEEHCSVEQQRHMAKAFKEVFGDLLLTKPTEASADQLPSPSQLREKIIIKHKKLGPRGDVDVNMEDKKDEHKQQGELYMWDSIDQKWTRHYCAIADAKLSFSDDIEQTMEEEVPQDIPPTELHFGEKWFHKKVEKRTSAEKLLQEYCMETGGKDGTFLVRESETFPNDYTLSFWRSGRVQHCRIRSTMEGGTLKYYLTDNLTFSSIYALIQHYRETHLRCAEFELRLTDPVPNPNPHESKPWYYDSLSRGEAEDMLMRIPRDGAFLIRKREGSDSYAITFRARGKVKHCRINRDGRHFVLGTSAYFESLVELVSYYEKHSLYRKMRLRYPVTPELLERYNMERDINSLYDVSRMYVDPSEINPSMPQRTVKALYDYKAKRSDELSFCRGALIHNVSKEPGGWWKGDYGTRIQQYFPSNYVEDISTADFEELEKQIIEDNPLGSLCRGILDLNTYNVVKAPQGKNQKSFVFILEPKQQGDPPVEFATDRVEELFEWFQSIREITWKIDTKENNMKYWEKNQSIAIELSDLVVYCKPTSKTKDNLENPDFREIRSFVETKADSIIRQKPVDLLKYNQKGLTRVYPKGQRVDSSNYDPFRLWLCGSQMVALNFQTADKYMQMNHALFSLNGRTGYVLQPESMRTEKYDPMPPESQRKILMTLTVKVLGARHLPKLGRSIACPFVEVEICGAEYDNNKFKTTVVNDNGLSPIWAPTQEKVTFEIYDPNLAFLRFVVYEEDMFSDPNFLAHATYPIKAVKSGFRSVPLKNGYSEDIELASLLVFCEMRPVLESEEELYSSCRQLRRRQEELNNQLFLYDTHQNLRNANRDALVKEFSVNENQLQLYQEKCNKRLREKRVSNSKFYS
In short: as §1

SH2 and PTB domains [3] = target: T3, SH2 and PTB domains (Homo sapiens, UniProt Q9BRG2); conditions: protein SH2D3A; PM assay replicate # 39307; array fabrication # 39286
T3 construct: thioredoxin; made in house; host or cells: BL21(DE3)pLysS E. coli
T3 sequence (Q9BRG2 whole entry, the tested form may be a part): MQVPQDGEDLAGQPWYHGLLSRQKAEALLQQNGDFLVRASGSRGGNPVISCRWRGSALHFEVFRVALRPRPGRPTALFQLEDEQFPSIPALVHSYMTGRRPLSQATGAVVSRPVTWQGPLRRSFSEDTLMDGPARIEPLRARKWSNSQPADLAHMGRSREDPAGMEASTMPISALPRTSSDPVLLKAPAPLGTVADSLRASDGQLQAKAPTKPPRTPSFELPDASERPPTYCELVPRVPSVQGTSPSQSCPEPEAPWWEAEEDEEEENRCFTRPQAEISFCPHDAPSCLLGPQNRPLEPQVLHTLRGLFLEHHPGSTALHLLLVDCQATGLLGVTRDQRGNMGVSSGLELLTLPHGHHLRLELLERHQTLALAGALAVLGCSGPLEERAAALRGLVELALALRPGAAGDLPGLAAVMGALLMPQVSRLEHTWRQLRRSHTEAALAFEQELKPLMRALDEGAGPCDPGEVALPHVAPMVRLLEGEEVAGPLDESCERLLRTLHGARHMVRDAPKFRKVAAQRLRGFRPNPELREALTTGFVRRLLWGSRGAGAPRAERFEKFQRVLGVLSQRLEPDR
In short: as §1

SH2 and PTB domains [4] = target: T4, SH2 and PTB domains (Homo sapiens, UniProt P07947); conditions: protein YES1
T4 construct: thioredoxin; made in house; host or cells: BL21(DE3)pLysS E. coli
T4 sequence (P07947 whole entry, the tested form may be a part): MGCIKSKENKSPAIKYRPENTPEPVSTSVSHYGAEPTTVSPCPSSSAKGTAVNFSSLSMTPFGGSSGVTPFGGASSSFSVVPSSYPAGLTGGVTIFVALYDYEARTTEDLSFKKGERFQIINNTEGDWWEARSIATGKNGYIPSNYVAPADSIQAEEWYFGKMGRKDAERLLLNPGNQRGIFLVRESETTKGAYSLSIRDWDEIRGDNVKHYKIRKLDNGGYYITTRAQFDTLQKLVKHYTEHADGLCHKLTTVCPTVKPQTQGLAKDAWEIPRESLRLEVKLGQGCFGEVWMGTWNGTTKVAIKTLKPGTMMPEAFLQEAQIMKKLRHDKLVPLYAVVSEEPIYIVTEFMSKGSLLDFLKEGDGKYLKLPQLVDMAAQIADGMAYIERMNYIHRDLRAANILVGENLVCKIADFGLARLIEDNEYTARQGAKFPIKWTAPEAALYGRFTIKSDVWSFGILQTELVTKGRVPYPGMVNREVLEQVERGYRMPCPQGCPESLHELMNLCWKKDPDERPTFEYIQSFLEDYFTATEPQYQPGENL
In short: as §1

SH2 and PTB domains [5] = target: T5, SH2 and PTB domains (Homo sapiens, UniProt P12931); conditions: protein SRC; PM assay replicate # 39307; array fabrication # 39286
T5 construct: thioredoxin; made in house; host or cells: BL21(DE3)pLysS E. coli
T5 sequence (P12931 whole entry, the tested form may be a part): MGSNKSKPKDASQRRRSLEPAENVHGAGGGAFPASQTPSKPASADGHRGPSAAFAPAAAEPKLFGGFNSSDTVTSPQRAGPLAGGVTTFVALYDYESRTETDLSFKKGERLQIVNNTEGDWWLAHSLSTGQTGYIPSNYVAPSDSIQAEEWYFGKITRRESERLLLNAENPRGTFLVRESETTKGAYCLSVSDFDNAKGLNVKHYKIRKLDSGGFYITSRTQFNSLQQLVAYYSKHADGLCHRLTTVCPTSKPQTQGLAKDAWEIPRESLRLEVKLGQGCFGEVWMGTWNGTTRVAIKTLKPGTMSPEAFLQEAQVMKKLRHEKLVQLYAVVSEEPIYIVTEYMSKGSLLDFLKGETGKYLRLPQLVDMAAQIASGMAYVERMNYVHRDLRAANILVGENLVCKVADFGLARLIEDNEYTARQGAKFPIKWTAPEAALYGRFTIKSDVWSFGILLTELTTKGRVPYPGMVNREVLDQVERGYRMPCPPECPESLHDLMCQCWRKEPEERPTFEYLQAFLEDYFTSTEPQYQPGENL
In short: as §1

SH2 and PTB domains [6] = target: T6, SH2 and PTB domains (Homo sapiens, UniProt O43639); conditions: protein NCK2; PM assay replicate # 39307; array fabrication # 39286
T6 construct: thioredoxin; made in house; host or cells: BL21(DE3)pLysS E. coli
T6 sequence (O43639 whole entry, the tested form may be a part): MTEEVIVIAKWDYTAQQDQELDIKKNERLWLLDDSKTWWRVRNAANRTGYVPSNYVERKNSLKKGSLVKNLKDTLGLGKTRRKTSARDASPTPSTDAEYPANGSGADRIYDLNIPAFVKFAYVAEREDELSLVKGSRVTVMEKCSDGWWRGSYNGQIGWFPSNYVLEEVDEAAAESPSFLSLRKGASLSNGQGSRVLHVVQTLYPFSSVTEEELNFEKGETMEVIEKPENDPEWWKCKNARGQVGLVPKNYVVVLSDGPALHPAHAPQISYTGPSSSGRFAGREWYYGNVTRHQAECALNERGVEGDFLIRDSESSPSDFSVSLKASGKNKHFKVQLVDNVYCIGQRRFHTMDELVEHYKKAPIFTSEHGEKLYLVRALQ
In short: as §1

SH2 and PTB domains [7] = target: T7, SH2 and PTB domains (Homo sapiens, UniProt Q92569); conditions: protein PIK3R3-NC; PM assay replicate # 39307; array fabrication # 39286
T7 construct: thioredoxin; made in house; host or cells: BL21(DE3)pLysS E. coli
In short: as §1

SH2 and PTB domains [8] = target: T8, SH2 and PTB domains (Homo sapiens, UniProt P51451); conditions: protein BLK
T8 construct: thioredoxin; made in house; host or cells: BL21(DE3)pLysS E. coli
T8 sequence (P51451 whole entry, the tested form may be a part): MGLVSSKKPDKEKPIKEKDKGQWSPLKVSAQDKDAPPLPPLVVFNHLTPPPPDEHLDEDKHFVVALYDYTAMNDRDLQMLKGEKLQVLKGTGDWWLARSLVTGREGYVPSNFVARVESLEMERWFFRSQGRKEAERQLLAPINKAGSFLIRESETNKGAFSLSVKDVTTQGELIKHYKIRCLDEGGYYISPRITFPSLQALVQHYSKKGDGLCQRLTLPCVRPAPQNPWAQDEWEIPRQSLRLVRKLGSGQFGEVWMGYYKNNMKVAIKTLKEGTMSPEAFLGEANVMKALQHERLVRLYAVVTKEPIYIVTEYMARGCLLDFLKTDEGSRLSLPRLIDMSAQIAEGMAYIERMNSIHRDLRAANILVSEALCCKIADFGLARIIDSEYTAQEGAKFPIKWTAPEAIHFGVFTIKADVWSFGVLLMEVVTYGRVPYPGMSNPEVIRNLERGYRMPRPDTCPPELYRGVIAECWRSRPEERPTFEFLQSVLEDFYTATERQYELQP
In short: as §1

[9] = PM assay replicate # 39307, array fabrication # 39286
[10] = PM assay replicate # 39352, array fabrication # 39336

## CC[C@H](C)[C@H](NC(=O)[C@H](CC(N)=O)NC(=O)[C@H](CC(N)=O)NC(=O)[C@H](CCCCN)NC(=O)[C@H](CC(C)C)NC(=O)[C@H](Cc1ccc(OP(=O)(O)O)cc1)NC(=O)[C@H](CCC(=O)O)NC(=O)[C@H](C)NC(=O)[C@H](CCCCN)NC(=O)CNC(=O)[C@H](CC(C)C)NC(=O)[C@@H](NC(=O)[C@H](CC(N)=O)NC(=O)[C@H](C)NC(=O)[C@@H](N)Cc1ccccc1)[C@@H](C)O)C(=O)N[C@@H](CC(C)C)C(=O)N[C@@H](CO)C(=O)N[C@@H](CC(=O)O)C(=O)O [ErbB4 pY1221 (18-mer)] (HELM PEPTIDE1{F.A.N.T.L.G.K.A.E.[O=C([C@H](Cc1ccc(OP(=O)(O)O)cc1)N[*:1])[*:2]].L.K.N.N.I.L.S.D}$$$$V2.0)
SH2 and PTB domains [1]; protein SYK-N, PM assay replicate # 39307, array fabrication # 39286
  Kd: 9490 nM
SH2 and PTB domains [1]; protein SYK-N, PM assay replicate # 39352, array fabrication # 39336
  Kd: 15600 nM
SH2 and PTB domains [1]; protein SYK-NC, PM assay replicate # 39307, array fabrication # 39286
  Kd: 290 nM
SH2 and PTB domains [1]; protein SYK-NC, PM assay replicate # 39351, array fabrication # 39336
  Kd: 810 nM
SH2 and PTB domains [1]; protein SYK-NC, PM assay replicate # 39352, array fabrication # 39336
  Kd: 1290 nM
SH2 and PTB domains [2]; [9]
  Kd: 1380 nM
SH2 and PTB domains [2]; [10]
  Kd: 1250 nM
SH2 and PTB domains [3]
  Kd: 610 nM
SH2 and PTB domains [4]; [9]
  Kd: 820 nM
SH2 and PTB domains [4]; [10]
  Kd: 1320 nM
SH2 and PTB domains [5]
  Kd: 440 nM
SH2 and PTB domains [6]
  Kd: 210 nM
SH2 and PTB domains [7]
  Kd: 540 nM
SH2 and PTB domains [8]; [9]
  Kd: 580 nM
SH2 and PTB domains [8]; PM assay replicate # 39351, array fabrication # 39336
  Kd: 1150 nM
SH2 and PTB domains [8]; [10]
  Kd: 1160 nM
